Measurements reported in patent publication US20170232083A1, “METHODS OF DIAGNOSIS AND TREATMENT OF CELIAC DISEASE IN CHILDREN” (priority 2014, published 2017).

Tested on: PBMC (polyclonal gluten-specific T cells) of paediatric and adult CD patients
Experiment: IFN-γ ELISpot of PBMC after 3 day oral wheat challenge (SFU, % of maximal peptide response, dominance scores, EC50; Examples 5-6)
Format: cell-based, human
Details: for IFN-γ ELISpot response: after oral wheat challenge; for IFN-γ ELISpot responses Day 0 prior to vs Day 6 after wheat challenge: p<0.05, Kruskal Wallis
[1] = patient A, 11-17 yrs, cut-off 10 SFU
[2] = patient E, H, 11-17 yrs, cut-off 10 SFU
[3] = patient F, 11-17 yrs, cut-off 10 SFU
[4] = patient G, 11-17 yrs, cut-off 10 SFU
[5] = patient H (HLA-DQ2.5 homozygote), 3-5yrs, cut-off 10 SFU
[6] = patient H, 11-17 yrs, cut-off 10 SFU
[7] = patient ID not given, 11-17 yrs, cut-off 10 SFU
[8] = patient N, 3-5yrs, cut-off 10 SFU
[9] = patient P, 11-17 yrs, cut-off 21.6 SFU
[10] = patient Q, 11-17 yrs, cut-off 10 SFU
[11] = patient U, H, 11-17 yrs, cut-off 10 SFU
[12] = patient V, 6-10 yrs, cut-off 10 SFU
[13] = patient Y, 6-10 yrs, cut-off 10 SFU
[14] = patient eleven, 6-10 yrs, cut-off 10 SFU
[15] = patient four, 3-5yrs, cut-off 10 SFU
[16] = patient seven, 6-10 yrs, cut-off 10.5 SFU
[17] = patient ten, 3-5yrs, cut-off 10 SFU
[18] = patient three, 6-10 yrs, cut-off 10.5 SFU
[19] = patient twelve, 11-17 yrs, cut-off 10 SFU
[20] = patient two, 3-5yrs, cut-off 10 SFU

Substance	IFN-γ ELISpot response [1] [SFU]	IFN-γ ELISpot response [2] [SFU]	IFN-γ ELISpot response [3] [SFU]	IFN-γ ELISpot response [4] [SFU]	IFN-γ ELISpot response [5] [SFU]	IFN-γ ELISpot response [6] [SFU]	IFN-γ ELISpot response [7] [SFU]	IFN-γ ELISpot response [8] [SFU]	IFN-γ ELISpot response [9] [SFU]	IFN-γ ELISpot response [10] [SFU]	IFN-γ ELISpot response [11] [SFU]	IFN-γ ELISpot response [12] [SFU]	IFN-γ ELISpot response [13] [SFU]	IFN-γ ELISpot response [14] [SFU]	IFN-γ ELISpot response [15] [SFU]	IFN-γ ELISpot response [16] [SFU]	IFN-γ ELISpot response [17] [SFU]	IFN-γ ELISpot response [18] [SFU]	IFN-γ ELISpot response [19] [SFU]	IFN-γ ELISpot response [20] [SFU]	other results
QPFPQPQQPFSQQ	9	16	12	1	13	2	30	3	10	28	22	5	6	1	12	6	3	13	9	9	Significant response as percentage of maximal peptide SFU (patient E, max peptide 224 SFU): (6-10% = ^); Significant response as percentage of maximal peptide SFU (patient F, max peptide 178 SFU): (6-10% = ^); Significant response as percentage of maximal peptide SFU (patient ID not given, max peptide 95 SFU): ′′ (21-40% = ′′); Significant response as percentage of maximal peptide SFU (patient II, max peptide 15 SFU): + (>70% = +); Significant response as percentage of maximal peptide SFU (patient J, max peptide 196 SFU): (6-10% = ^); Significant response as percentage of maximal peptide SFU (patient K, max peptide 53 SFU): ′′ (21-40% = ′′); Significant response as percentage of maximal peptide SFU (patient M, max peptide 48 SFU): ′′ (21-40% = ′′); Significant response as percentage of maximal peptide SFU (patient Q, max peptide 97 SFU): ′′ (21-40% = ′′); Significant response as percentage of maximal peptide SFU (patient U, max peptide 81 SFU): ′′ (21-40% = ′′); Significant response as percentage of maximal peptide SFU (patient five, max peptide 48 SFU): ′′ (21-40% = ′′); Significant response as percentage of maximal peptide SFU (patient four, max peptide 44 SFU): ′′ (21-40% = ′′)
QPPFSEEQEQPLPQ [gluten peptide described by Vader et al, reference compound]	–	–	–	–	–	–	–	–	–	–	–	–	–	–	–	–	–	–	–	–	positive polyclonal T cell response after wheat challenge, proportion (Example 5, 2/30): 6.7%; polyclonal T cell responses following wheat challenge, volunteers (Example 6, 2/30): 6.7%
TIPEQPEQPFPLQ	0	224	14	2	2	4	6	3	7	8	5	0	2	3	3	1	5	18	1	11	Significant response as percentage of maximal peptide SFU (patient E, max peptide 224 SFU): + (>70% = +); Significant response as percentage of maximal peptide SFU (patient F, max peptide 178 SFU): (6-10% = ^); Significant response as percentage of maximal peptide SFU (patient J, max peptide 196 SFU): (6-10% = ^); Significant response as percentage of maximal peptide SFU (patient two, max peptide 60 SFU): ′ (11-20% = ′)
W09 (PQPFLPELPYPQP) [Peptide W09]	–	–	–	–	–	–	–	–	–	–	–	–	–	–	–	–	–	–	–	–	Dominance score 3-5yrs (n = 9) (CD children 3-5yrs, n = 9, following wheat challenge, mean percentage of maximal peptide response): 30.7; Dominance score 6-10yrs (n = 10) (CD children 6-10yrs, n = 10, following wheat challenge, mean percentage of maximal peptide response): 28.6; Dominance score 11-18yrs (n = 11) (CD children 11-18yrs, n = 11, following wheat challenge, mean percentage of maximal peptide response): 19.1; Dominance score Mean all ages (CD children, all ages, following wheat challenge (Table 9)): 25.2
YEVIRSLVLRTLPN	20	1	2	1	0	3	1	2	49	2	3	3	1	1	1	10	3	4	0	1	Significant response as percentage of maximal peptide SFU (patient A, max peptide 20 SFU): + (>70% = +); Significant response as percentage of maximal peptide SFU (patient P, max peptide 64 SFU): + (>70% = +); Significant response as percentage of maximal peptide SFU (patient W, max peptide 30 SFU): + (>70% = +)
tetanus toxoid: positive control antigen (CSL, Australia) [reference compound]	–	–	–	–	–	–	–	–	–	–	–	–	–	–	–	–	–	–	–	–	IFN-γ ELISpot responses Day 0 prior to vs Day 6 after wheat challenge: no difference; IFN-γ ELISpot responses Day 0 prior to vs Day 6 after wheat challenge (listed as Tetanus toxoid): did not differ
